Structures can show the parent of a compound that is named as a salt. A value given as a limit tells only on which side of the number the result lay.

The target of the assay is T1, URAT-1 transporter (Homo sapiens, UniProt Q96S37).
T1 construct: expressed in transfected cells
T1 sequence (Q96S37 with tags, fused parts or gaps): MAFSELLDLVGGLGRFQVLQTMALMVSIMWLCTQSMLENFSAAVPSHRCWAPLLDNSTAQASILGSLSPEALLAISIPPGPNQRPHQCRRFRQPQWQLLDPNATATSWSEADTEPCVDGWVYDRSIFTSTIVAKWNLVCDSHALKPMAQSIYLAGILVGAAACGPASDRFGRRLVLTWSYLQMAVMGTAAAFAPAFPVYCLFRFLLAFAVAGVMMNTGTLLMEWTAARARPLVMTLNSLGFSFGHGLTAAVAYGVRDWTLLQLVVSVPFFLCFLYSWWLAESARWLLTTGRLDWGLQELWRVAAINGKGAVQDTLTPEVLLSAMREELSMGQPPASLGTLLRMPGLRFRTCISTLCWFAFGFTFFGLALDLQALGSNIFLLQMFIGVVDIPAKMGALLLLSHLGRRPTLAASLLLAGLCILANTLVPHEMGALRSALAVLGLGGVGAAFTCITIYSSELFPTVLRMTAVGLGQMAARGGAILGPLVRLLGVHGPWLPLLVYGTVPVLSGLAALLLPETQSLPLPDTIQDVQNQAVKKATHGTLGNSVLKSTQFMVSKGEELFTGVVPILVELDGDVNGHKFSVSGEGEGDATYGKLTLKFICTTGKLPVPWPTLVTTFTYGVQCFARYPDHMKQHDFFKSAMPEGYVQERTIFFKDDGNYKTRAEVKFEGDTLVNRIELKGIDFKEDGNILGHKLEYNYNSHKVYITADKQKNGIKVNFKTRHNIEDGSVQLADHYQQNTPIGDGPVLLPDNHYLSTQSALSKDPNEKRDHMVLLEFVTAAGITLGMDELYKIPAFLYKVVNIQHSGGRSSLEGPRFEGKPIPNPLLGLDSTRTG
In words: URAT-1 inhibitor activity: [14C]-uric acid uptake into CHO-URAT1(L)GFP#8 (CHO#8) cells, scintillation proximity. Type of assay: cell-based. In short, it runs like this: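 Scintillation proximity read-out of 30 nM (final) [14C]-uric acid uptake over three hours at room temperature in chloride-free HEPES buffer pH 7.4. Compounds, 0–10 μM final with 0.25% DMSO, were added 15 minutes before substrate; cells were a clonal CHO line with human URAT1(L)-eGFP, preincubated 1 hour in chloride buffer.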
Background: SPA uses beads or plates that emit light when radiolabelled molecules are held near them.
In general, IC50 refers to the concentration needed to halve the response being measured. High values mean lower potency, low ones higher potency. The molecule `COc1ccccc1Oc1ccc(S(=O)(=O)Nc2ncns2)cc1C#N` [compound 271] returned a 50% inhibitory concentration (IC50) of 4540 nM. That is a single-digit micromolar value.

Molecule `N#Cc1cc(S(=O)(=O)Nc2ncc(F)s2)ccc1Oc1cccc(Cl)c1F` [Example 119, 4-(3-chloro-2-fluorophenoxy)-3-cyano-N-(5-fluoro-1,3-thiazol-2-yl)benzenesulfonamide] registered a 50% inhibitory concentration (IC50) of 1570 nM.

Take `COc1ccc(Oc2ccc(S(=O)(=O)Nc3ncns3)cc2C#N)cc1F` [compound 257]: it took 1200 nM to reach half-maximal inhibition (IC50).

Consider `CC(C)Nc1ccc(Oc2ccc(S(=O)(=O)Nc3nccs3)cc2C#N)cn1` [Example 188, 3-cyano-4-{[6-(propan-2-ylamino)pyridin-3-yl]oxy}-N-(1,3-thiazol-2-yl)benzenesulfonamide], for which the half-maximal inhibitory concentration (IC50) came out at 688 nM. This IC50 is about 1.7-fold lower than that of the molecule before.

For the molecule `N#Cc1cc(Oc2ccc(S(=O)(=O)Nc3nccs3)cc2C#N)ccc1F` [Example 246, 3-cyano-4-(3-cyano-4-fluorophenoxy)-N-(1,3-thiazol-2-yl)benzenesulfonamide], the IC50 was found to be 699 nM.

The molecule `Cc1c(Oc2ccc(S(=O)(=O)Nc3ncns3)cc2C#N)ccc(F)c1F` [compound 288] registered an IC50 of 431 nM.

Regarding `Cc1ccc(F)cc1Oc1ccc(S(=O)(=O)Nc2ncns2)cc1C#N` [Example 41, 3-cyano-4-(5-fluoro-2-methylphenoxy)-N-(1,2,4-thiadiazol-5-yl)benzenesulfonamide], 1350 nM corresponded to half-maximal inhibition (IC50). Against the preceding molecule, the IC50 is about 3.1-fold higher.

`CCc1cc(F)ccc1Oc1ccc(S(=O)(=O)Nc2ncns2)cc1CC` [Example 2, 3-ethyl-4-(2-ethyl-4-fluorophenoxy)-N-(1,2,4-thiadiazol-5-yl)benzenesulfonamide diethylamine salt] registered a concentration for half-maximal inhibition (IC50) of 64 nM.

In turn, `COc1cc(C)ccc1Oc1ccc(S(=O)(=O)Nc2ncns2)cc1C#N` [compound 285] came in with an IC50 of 5590 nM.

As for `Cc1ccc(Oc2cc(F)c(S(=O)(=O)Nc3nncs3)cc2Cl)cc1` [compound 314], the IC50 is over 10000 nM.

`N#Cc1ccc(Oc2ccc(S(=O)(=O)Nc3ncc(Cl)s3)cc2C#N)cc1Cl` [Example 247, 4-(3-chloro-4-cyanophenoxy)-N-(5-chloro-1,3-thiazol-2-yl)-3-cyanobenzenesulfonamide] had a half-maximal inhibitory concentration (IC50) of 450 nM.

`N#Cc1cc(S(=O)(=O)Nc2ncns2)ccc1Oc1ccc(Cl)cc1OC(F)(F)F` [Example 32, 4-[4-chloro-2-(trifluoromethoxy)phenoxy]-3-cyano-N-(1,2,4-thiadiazol-5-yl)benzenesulfonamide diethylamine salt] had an IC50 of 986 nM.

Molecule `CNc1ccc(Oc2ccc(S(=O)(=O)Nc3nccs3)cc2C#N)cn1` [Example 187, 3-cyano-4-{[6-(methylamino)pyridin-3-yl]oxy}-N-(1,3-thiazol-2-yl)benzenesulfonamide] returned an IC50 of over 6640 nM.

On to `N#Cc1cc(S(=O)(=O)Nc2ncns2)ccc1Oc1ccccc1C(F)(F)F` [Example 35, 3-cyano-4-(2-(trifluoromethyl)phenoxy)-N-(1,2,4-thiadiazol-5-yl)benzenesulfonamide], for which the half-maximal inhibitory concentration (IC50) amounted to 4320 nM. That is a single-digit micromolar value.

As to `COc1ccc(Oc2ccc(S(=O)(=O)Nc3ncns3)cc2C#N)c(C)c1` [compound 256], the half-maximal inhibitory concentration (IC50) was over 4820 nM.

Turning to `N#Cc1cc(S(=O)(=O)Nc2ncc(F)s2)ccc1Oc1ccc(Cl)cc1F` [Example 116, 4-(4-chloro-2-fluorophenoxy)-3-cyano-N-(5-fluoro-1,3-thiazol-2-yl)benzenesulfonamide], the half-maximal inhibitory concentration (IC50) is over 5310 nM.

Molecule `N#Cc1cc(S(=O)(=O)Nc2ncc(F)s2)ccc1Oc1ccc(CCO)cc1` [Example 146, 3-cyano-N-(5-fluoro-1,3-thiazol-2-yl)-4-[4-(2-hydroxyethyl)phenoxy]benzenesulfonamide] had an IC50 of over 10000 nM.

The molecule `N#Cc1cc(S(=O)(=O)Nc2ncc(Cl)s2)ccc1Oc1ccc(Cl)cc1F` [Example 87, 4-(4-chloro-2-fluorophenoxy)-N-(5-chloro-1,3-thiazol-2-yl)-3-cyanobenzenesulfonamide] registered a concentration for half-maximal inhibition (IC50) of 415 nM.

`COc1ccc(F)c(Oc2cc(F)c(S(=O)(=O)Nc3nncs3)cc2Cl)c1` [compound 315] returned an IC50 of 2180 nM.

For the molecule `CCc1cc(F)ccc1Oc1ccc(S(=O)(=O)Nc2ncns2)cc1I` [Example 3, 4-(2-ethyl-4-fluorophenoxy)-3-iodo-N-(1,2,4-thiadiazol-5-yl)benzenesulfonamide], the half-maximal inhibitory concentration (IC50) stood at 69 nM.

As to `COc1cc(F)cc(Oc2cc(F)c(S(=O)(=O)Nc3nncs3)cc2Cl)c1` [compound 297], the midpoint of inhibition, the IC50, lay at 1010 nM.

Consider `O=S(=O)(Nc1ncns1)c1ccc(Oc2ccc(F)c(F)c2)c(Cl)c1` [compound 202], for which inhibition was half-maximal at 823 nM (IC50).

`COc1ccc(F)c(Oc2ccc(S(=O)(=O)Nc3ncns3)cc2C#N)c1F` [compound 282] returned a 50% inhibitory concentration (IC50) of 1660 nM.

Turning to `CCOc1ccc(Oc2ccc(S(=O)(=O)Nc3nccs3)cc2C#N)cn1` [Example 191, 3-cyano-4-[(6-ethoxypyridin-3-yl)oxy]-N-(1,3-thiazol-2-yl)benzenesulfonamide], the concentration for half-maximal inhibition (IC50) was over 10000 nM.

The molecule `N#Cc1cc(S(=O)(=O)Nc2ncc(F)s2)ccc1Oc1ccccc1Cl` [Example 96, 4-(2-chlorophenoxy)-3-cyano-N-(5-fluoro-1,3-thiazol-2-yl)benzenesulfonamide] came in with an IC50 of 675 nM.

In turn, `N#Cc1ccc(Oc2ccc(S(=O)(=O)Nc3nccs3)cc2F)cc1Cl` [compound 232] showed an IC50 of 513 nM.

`N#Cc1cc(S(=O)(=O)Nc2ncns2)ccc1Oc1cc(Cl)ccc1Cl` [Example 55, 3-cyano-4-(2,5-dichlorophenoxy)-N-(1,2,4-thiadiazol-5-yl)benzenesulfonamide]: the IC50 came to 590 nM.

`O=S(=O)(Nc1nccs1)c1ccc(Oc2ccc(Cl)cc2OC(F)(F)F)c(F)c1` [Example 70, 4-[4-chloro-2-(trifluoromethoxy)phenoxy]-3-fluoro-N-(1,3-thiazol-2-yl)benzenesulfonamide] registered a half-inhibitory concentration (IC50) of over 10000 nM.

`CC(C)Oc1ccccc1Oc1ccc(S(=O)(=O)Nc2ncns2)cc1C#N` [compound 278] came in with an IC50 of 2740 nM.

`N#Cc1ccc(Oc2c(F)cc(S(=O)(=O)Nc3ncns3)cc2Br)cc1Cl` [Example 250, 3-bromo-4-(3-chloro-4-cyanophenoxy)-5-fluoro-N-(1,2,4-thiadiazol-5-yl)benzenesulfonamide] returned an IC50 of 1880 nM.

The molecule `N#Cc1cc(S(=O)(=O)Nc2ncns2)ccc1Oc1cccc(Cl)c1` [compound 291] returned a half-maximal inhibitory concentration (IC50) of 1130 nM.

For `Cc1ccc(F)cc1Oc1ccc(S(=O)(=O)Nc2ncc(F)s2)cc1C#N` [Example 105, 3-cyano-4-(5-fluoro-2-methylphenoxy)-N-(5-fluoro-1,3-thiazol-2-yl)benzenesulfonamide], the IC50 is over 1790 nM.

The molecule `N#Cc1cc(Oc2ccc(S(=O)(=O)Nc3ncc(F)s3)cc2C#N)ccc1F` [Example 245, 3-cyano-4-(3-cyano-4-fluorophenoxy)-N-(5-fluoro-1,3-thiazol-2-yl)benzenesulfonamide] had a half-maximal inhibitory concentration (IC50) of 2000 nM.

On to `N#Cc1cc(S(=O)(=O)Nc2ncc(F)s2)ccc1Oc1ccc(Cl)cc1` [Example 98, 4-(4-chlorophenoxy)-3-cyano-N-(5-fluoro-1,3-thiazol-2-yl)benzenesulfonamide], for which the half-inhibitory concentration (IC50) was over 1690 nM.

Consider `Cc1cc(S(=O)(=O)Nc2nncs2)c(F)cc1Oc1ccc(F)c(F)c1` [compound 200], for which the IC50 is over 10000 nM.

In turn, `N#Cc1cc(S(=O)(=O)Nc2nncs2)ccc1Oc1ccc(CO)c(Cl)c1` [Example 341, 4-[3-chloro-4-(hydroxymethyl)phenoxy]-3-cyano-N-(1,3,4-thiadiazol-2-yl)benzenesulfonamide] displayed an IC50 of 9 nM.

Consider `N#Cc1cc(S(=O)(=O)Nc2nccs2)ccc1Oc1cccc(CCO)c1` [compound 175], for which the IC50 was over 5440 nM.

`COc1cc(OC(F)(F)F)ccc1Oc1ccc(S(=O)(=O)Nc2ncns2)cc1C#N` [Example 27, 3-cyano-4-[2-methoxy-4-(trifluoromethoxy)phenoxy]-N-(1,2,4-thiadiazol-5-yl)benzenesulfonamide diethylamine salt] showed an IC50 of over 10000 nM.

`N#Cc1cc(S(=O)(=O)Nc2ncns2)ccc1Oc1ccc(Cl)cc1` [Example 13, 4-(4-chlorophenoxy)-3-cyano-N-(1,2,4-thiadiazol-5-yl)benzenesulfonamide diethylamine salt] gave an IC50 of 1270 nM. In other words, the single-digit micromolar range.

Take `O=S(=O)(Nc1cscn1)c1cc(Cl)c(Oc2ccc(F)cc2I)cc1F` [Example 149, 5-chloro-2-fluoro-4-(4-fluoro-2-iodophenoxy)-N-(1,3-thiazol-4-yl)benzenesulfonamide]: the IC50 came out at 494 nM.

The molecule `COc1cc(Cl)ccc1Oc1cc(F)c(S(=O)(=O)Nc2nncs2)cc1Cl` [Example 150, 5-chloro-4-(4-chloro-2-methoxyphenoxy)-2-fluoro-N-(1,3,4-thiadiazol-2-yl)benzenesulfonamide] gave an IC50 of 2510 nM. Compared with the last molecule, the IC50 is about 5.1-fold higher.

In turn, `N#Cc1cc(S(=O)(=O)Nc2ncc(Cl)s2)ccc1Oc1cc(Cl)ccc1Cl` [Example 86, N-(5-chloro-1,3-thiazol-2-yl)-3-cyano-4-(2,5-dichlorophenoxy)benzenesulfonamide] yielded an IC50 of 680 nM.

In turn, `COc1cc(F)c(F)cc1Oc1ccc(S(=O)(=O)Nc2ncns2)cc1C#N` [compound 270] registered an IC50 of 957 nM. The IC50 values of the last two molecules are within 1.5-fold of each other.

As for `COc1ccc(Cl)cc1Oc1ccc(S(=O)(=O)Nc2ncns2)cc1C#N` [Example 10, 4-(5-chloro-2-methoxyphenoxy)-3-cyano-N-(1,2,4-thiadiazol-5-yl)benzenesulfonamide diethylamine salt], the half-inhibitory concentration (IC50) is over 5760 nM.

For the molecule `COc1cccc(Oc2cc(F)c(S(=O)(=O)Nc3nncs3)cc2Cl)c1C` [compound 323], 2170 nM corresponded to half-maximal inhibition (IC50).

As for `N#Cc1cc(S(=O)(=O)Nc2ncc(F)s2)ccc1Oc1ccc(F)c(C(F)(F)F)c1` [Example 143, 3-cyano-N-(5-fluoro-1,3-thiazol-2-yl)-4-[4-fluoro-3-(trifluoromethyl)phenoxy]benzenesulfonamide], the concentration for half-maximal inhibition (IC50) was 566 nM.

The molecule `COc1cccc(Cl)c1Oc1cc(F)c(S(=O)(=O)Nc2nncs2)cc1Cl` [compound 303] showed an IC50 of over 1430 nM.

With `CC(Oc1ncc(Oc2ccc(S(=O)(=O)Nc3nncs3)cc2C#N)cc1Cl)C(F)(F)F` (stereo not drawn) [Example 335], half-maximal inhibition (IC50) required 3260 nM.

For the origin of these results see US20140315933A1, “CHEMICAL COMPOUNDS” (Pfizer Limited, priority 2013, published 2014).
